For 21 compounds, EC50 results are on record in patent publication US8765730B2 (Hoffmann-La Roche Inc, priority 2010, dated 2014).

For this assay, the target named is T1, human GPBAR1 receptor (Homo sapiens, UniProt Q8TDU6).
T1 construct: expressed in transfected cells
T1 sequence (Q8TDU6 1-330): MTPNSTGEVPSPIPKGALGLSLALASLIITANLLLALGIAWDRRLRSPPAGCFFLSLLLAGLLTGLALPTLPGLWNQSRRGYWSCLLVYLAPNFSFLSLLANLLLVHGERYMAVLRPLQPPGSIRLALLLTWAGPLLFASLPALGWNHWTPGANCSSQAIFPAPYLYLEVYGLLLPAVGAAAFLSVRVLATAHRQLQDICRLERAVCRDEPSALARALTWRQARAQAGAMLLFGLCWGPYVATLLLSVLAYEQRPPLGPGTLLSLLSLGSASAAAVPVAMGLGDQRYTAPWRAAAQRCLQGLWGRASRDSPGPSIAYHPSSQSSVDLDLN
Briefly: functional cAMP assay in CHO-dhfr(minus) cells expressing human GPBAR1 receptors. It is filed as cell-based. The note with it: human EC50, functional cAMP assay, 30 min at 30° C. The gist of the method:
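Agonist cAMP read-out: stable GPBAR1 CHO-dhfr− clone, 30 min compound exposure at 30° C following 30 min IBMX (1 mM) preincubation in Krebs Ringer bicarbonate. Time-resolved energy-transfer detection gives EC50; parental CHO cells serve as counter-screen.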

Each structure is given as a SMILES string.

Compound `CC(=O)N1CCN(c2ccc(C(CC(=NO)c3ccnc(C)c3)c3ccc(F)cc3F)cn2)CC1` (stereo not drawn) [Example 444, 3-[6-(4-Acetyl-piperazin-1-yl)-pyridin-3-yl]-3-(2,4-difluoro-phenyl)-1-(2-methyl-pyridin-4-yl)-propan-1-one oxime] returned an EC50 of 103 nM.

As for `Cc1cc(/C(CC(c2ccc(Br)cc2)c2cc(F)cc(F)c2)=N/O)ccn1` (stereo not drawn) [Example 445, 3-(4-Bromo-phenyl)-3-(3,5-difluoro-phenyl)-1-(2-methyl-pyridin-4-yl)-propan-1-one oxime], the EC50 stood at 27 nM.

As to `COC(=O)c1ccc(-c2ccc(C(C/C(=N\O)c3ccnc(C)c3)c3ccc(Cl)cc3F)cc2)cc1F` (stereo not drawn) [Example 446, 4′-[1-(4-Chloro-2-fluoro-phenyl)-3-[(E)-hydroxyimino]-3-(2-methyl-pyridin-4-yl)-propyl]-3-fluoro-biphenyl-4-carboxylic acid methyl ester], it took 59 nM to reach a half-maximal effect (EC50).

Compound `Cc1cc(/C(CC(c2ccc(-c3ccc(C(=O)O)c(F)c3)cc2)c2ccc(Cl)cc2F)=N/O)ccn1` (stereo not drawn) [Example 447, 4′-[1-(4-Chloro-2-fluoro-phenyl)-3-[(E)-hydroxyimino]-3-(2-methyl-pyridin-4-yl)-propyl]-3-fluoro-biphenyl-4-carboxylic acid] returned a 50% effective concentration (EC50) of 12 nM.

Consider `COC(=O)c1ccc(-c2ccc(C(C/C(=N\O)c3ccnc(C)c3)c3ccc(Cl)cc3F)cc2)cc1Cl` (stereo not drawn) [Example 450, 3-Chloro-4′-[1-(4-chloro-2-fluoro-phenyl)-3-[(E)-hydroxyimino]-3-(2-methyl-pyridin-4-yl)-propyl]-biphenyl-4-carboxylic acid methyl ester], for which the concentration for a half-maximal effect (EC50) is 416 nM.

`Cc1cc(/C(CC(c2ccc(-c3ccc(C(=O)O)c(Cl)c3)cc2)c2ccc(Cl)cc2F)=N/O)ccn1` (stereo not drawn) [Example 451, 3-Chloro-4′-[1-(4-chloro-2-fluoro-phenyl)-3-[(E)-hydroxyimino]-3-(2-methyl-pyridin-4-yl)-propyl]-biphenyl-4-carboxylic acid]: the concentration for a half-maximal effect (EC50) stood at 24 nM.

`Cc1cc(/C(C[C@H](c2ccc(-c3ccc(C(=O)O)c(Cl)c3)cc2)c2ccc(Cl)cc2F)=N/O)ccn1` [Example 452, (−)-3-Chloro-4′-[1-(4-chloro-2-fluoro-phenyl)-3-[(E)-hydroxyimino]-3-(2-methyl-pyridin-4-yl)-propyl]-biphenyl-4-carboxylic acid] yielded a 50% effective concentration (EC50) of 15 nM.

For `COC(=O)c1ccc(-c2ccc(C(C/C(=N\O)c3ccnc(C)c3)c3ccc(Cl)cc3F)cc2)cc1OC` (stereo not drawn) [Example 454, 4′-[1-(4-Chloro-2-fluoro-phenyl)-3-[(E)-hydroxyimino]-3-(2-methyl-pyridin-4-yl)-propyl]-3-methoxy-biphenyl-4-carboxylic acid methyl ester], it took 270 nM to reach a half-maximal effect (EC50). This EC50 lies about 18-fold higher than the previous one.

Compound `COc1cc(-c2ccc(C(C/C(=N\O)c3ccnc(C)c3)c3ccc(Cl)cc3F)cc2)ccc1C(=O)O` (stereo not drawn) [Example 455, 4′-[1-(4-Chloro-2-fluoro-phenyl)-3-[(E)-hydroxyimino]-3-(2-methyl-pyridin-4-yl)-propyl]-3-methoxy-biphenyl-4-carboxylic acid] registered a concentration for a half-maximal effect (EC50) of 12 nM.

Consider `Cc1cc(/C(CC(c2ccc(-c3ccc(C(=O)O)cc3C)cc2)c2ccc(Cl)cc2F)=N/O)ccn1` (stereo not drawn) [Example 456, 4′-[1-(4-Chloro-2-fluoro-phenyl)-3-[(E)-hydroxyimino]-3-(2-methyl-pyridin-4-yl)-propyl]-2-methyl-biphenyl-4-carboxylic acid], for which the EC50 stood at 16 nM.

As for `Cc1cc(/C(CC(c2ccc(-c3ccc(C(=O)O)s3)cc2)c2ccc(Cl)cc2F)=N/O)ccn1` (stereo not drawn) [Example 457, 5-{4-[1-(4-Chloro-2-fluoro-phenyl)-3-[(E)-hydroxyimino]-3-(2-methyl-pyridin-4-yl)-propyl]-phenyl}-thiophene-2-carboxylic acid], a half-maximal effect (EC50) was put at 17 nM. This EC50 and that of the compound before are within 1.5-fold of each other.

Regarding `Cc1cc(/C(CC(c2ccc(-c3c[nH]c(=O)[nH]c3=O)cc2)c2ccc(Cl)cc2F)=N/O)ccn1` (stereo not drawn) [Example 458, 5-{4-[1-(4-Chloro-2-fluoro-phenyl)-3-[(E)-hydroxyimino]-3-(2-methyl-pyridin-4-yl)-propyl]-phenyl}-1H-pyrimidine-2,4-dione], the half-maximal effective concentration (EC50) was 22 nM.

The compound `Cn1cc(/C(CC(c2ccc(-c3ccc(CC#N)cc3)cc2)c2ccc(Cl)cc2F)=N/O)ccc1=O` (stereo not drawn) [Example 459, {4′-[1-(4-Chloro-2-fluoro-phenyl)-3-[(E)-hydroxyimino]-3-(1-methyl-6-oxo-1,6-dihydro-pyridin-3-yl)-propyl]-biphenyl-4-yl}-acetonitrile] returned an EC50 of 364 nM.

`Cn1cc(/C(CC(c2ccc(-c3ccc(CC(=O)O)cc3)cc2)c2ccc(Cl)cc2F)=N/O)ccc1=O` (stereo not drawn) [Example 460, {4′-[1-(4-Chloro-2-fluoro-phenyl)-3-[(E)-hydroxyimino]-3-(1-methyl-6-oxo-1,6-dihydro-pyridin-3-yl)-propyl]-biphenyl-4-yl}-acetic acid] yielded an EC50 of 421 nM.

For `CCOC(=O)c1ccc(-c2ccc([C@@H](C/C(=N\O)c3ccc(=O)n(C)c3)c3ccc(Cl)cc3F)cc2)s1` [Example 467, 5-{4-[(−)-1-(4-Chloro-2-fluoro-phenyl)-3-[(E)-hydroxyimino]-3-(1-methyl-6-oxo-1,6-dihydro-pyridin-3-yl)-propyl]-phenyl}-thiophene-2-carboxylic acid ethyl ester], the response was half-maximal at 348 nM (EC50).

The compound `Cn1cc(/C(C[C@H](c2ccc(-c3ccc(C(=O)O)s3)cc2)c2ccc(Cl)cc2F)=N/O)ccc1=O` [Example 468, 5-{4-[(−)-1-(4-Chloro-2-fluoro-phenyl)-3-[(E)-hydroxyimino]-3-(1-methyl-6-oxo-1,6-dihydro-pyridin-3-yl)-propyl]-phenyl}-thiophene-2-carboxylic acid] came in with a concentration giving a half-maximal response (EC50) of 349 nM.

As for `Cn1cc(/C(C[C@@H](c2ccc(-c3ccc(C(=O)O)s3)cc2)c2ccc(Cl)cc2F)=N/O)ccc1=O` [Example 470, 5-{4-[(+)-1-(4-Chloro-2-fluoro-phenyl)-3-[(E)-hydroxyimino]-3-(1-methyl-6-oxo-1,6-dihydro-pyridin-3-yl)-propyl]-phenyl}-thiophene-2-carboxylic acid], a half-maximal effect (EC50) was put at 61 nM. This EC50 lies about 5.7-fold lower than the previous one.

In turn, `Cn1cc(/C(CC(c2ccc(-c3c[nH]c(=O)[nH]c3=O)cc2)c2ccc(Cl)cc2F)=N/O)ccc1=O` (stereo not drawn) [Example 471, 5-{4-[1-(4-Chloro-2-fluoro-phenyl)-3-[(E)-hydroxyimino]-3-(1-methyl-6-oxo-1,6-dihydro-pyridin-3-yl)-propyl]-phenyl}-1H-pyrimidine-2,4-dione] came in with an EC50 of 170 nM.

`Cn1cc(/C(CC(c2ccc(-c3ccc(C(=O)O)c(F)c3)cc2)c2ccc(Cl)cc2Cl)=N/O)ccc1=O` (stereo not drawn) [Example 473, 4′-[1-(2,4-Dichloro-phenyl)-3-[(E)-hydroxyimino]-3-(1-methyl-6-oxo-1,6-dihydro-pyridin-3-yl)-propyl]-3-fluoro-biphenyl-4-carboxylic acid] showed a concentration for a half-maximal effect (EC50) of 29 nM.

The compound `Cn1cc(/C(CC(c2ccc(F)cc2)c2ccc(Br)cc2)=N/O)ccc1=O` (stereo not drawn) [Example 479, 5-{3-(4-Bromo-phenyl)-3-(4-fluoro-phenyl)-1-[(E)-hydroxyimino]-propyl}-1-methyl-1H-pyridin-2-one] returned an EC50 of 13 nM.

The compound `Cc1cc(/C(C[C@H](c2ccc(C3CCN(S(N)(=O)=O)CC3)cc2)c2ccc(Cl)cc2C)=N/O)ccn1` [Example 480, (R,E)-4-(4-(1-(4-Chloro-2-methylphenyl)-3-(hydroxyimino)-3-(2-methylpyridin-4-yl)propyl)phenyl)piperidine-1-sulfonamide] yielded a concentration giving a half-maximal response (EC50) of 20 nM. Against the preceding compound, the EC50 is about 1.5-fold higher.
